ChEMBL document CHEMBL5150076, “Discovery of Novel Orally Bioavailable Triazoles with Potent and Broad-Spectrum Antifungal Activity In Vitro and In Vivo” (J Med Chem, 2022)
In brackets after ≈: the same amount, converted by molar mass.

Tests used:
Candida albicans [1] = assay: Antifungal activity against Candida albicans 20#; type: functional
Candida parapsilosis [2] = assay: Antifungal activity against Candida parapsilosis 90018; type: functional; conditions: Lodderomyces parapsilosis
Candida parapsilosis [3] = assay: Antifungal activity against Candida parapsilosis 660; type: functional; conditions: Lodderomyces parapsilosis
Nakaseomyces glabratus [4] = assay: Antifungal activity against Candida glabrata ATCC2001; type: functional
Pichia kudriavzevii [5] = assay: Antifungal activity against Candida krusei 629; type: functional
Candida albicans [6] = assay: Antifungal activity against Candida albicans 162; type: functional
Cryptococcus neoformans [7] = assay: Antifungal activity against Cryptococcus neoformans H99 incubated for 72 hrs by microbroth dilution method; type: functional
Pichia kudriavzevii [8] = assay: Antifungal activity against Candida krusei 463; type: functional
Candida albicans [9] = assay: Antifungal activity against Candida albicans 14#; type: functional
Candida tropicalis [10] = assay: Antifungal activity against Candida tropicalis ATCC750; type: functional
Candida albicans [11] = assay: Antifungal activity against Candida albicans 305; type: functional
Aspergillus fumigatus [12] = assay: Antifungal activity against Aspergillus fumigatus 7544 incubated for 48 hrs by microbroth dilution method; type: functional
Candida tropicalis [13] = assay: Antifungal activity against Candida tropicalis 112936; type: functional
Candida albicans [14] = assay: Antifungal activity against Candida albicans SC5314 incubated for 24 hrs by microbroth dilution method; type: functional
Candida albicans [15] = assay: Antifungal activity against Candida albicans 12#; type: functional
[16] = Cytotoxicity against HUVEC assessed as cell viability at 64 ug/ml incubated for 24 hrs by CCK-8 assay; type: toxicity, cell-based; conditions: human, HUVEC cells, at 64 µg/mL, read-out: Activity
Pichia kudriavzevii [17] = assay: Antifungal activity against Candida krusei 397; type: functional
Candida albicans [18] = assay: Antifungal activity against Candida albicans 28#; type: functional
[Candida] auris [19] = Antifungal activity against Candida auris D12; type: functional; conditions: Candidozyma auris
[Candida] auris [20] = Antifungal activity against Candida auris BS12372; type: functional; conditions: Candidozyma auris
[Candida] auris [21] = Antifungal activity against Candida auris 791; type: functional; conditions: Candidozyma auris
[Candida] auris [22] = Antifungal activity against Candida auris 887; type: functional; conditions: Candidozyma auris
Candida parapsilosis [23] = assay: Antifungal activity against Candida parapsilosis 700; type: functional; conditions: Lodderomyces parapsilosis
Pichia kudriavzevii [24] = assay: Antifungal activity against Candida krusei 467; type: functional
in vitro = conditions: human, Caco-2 cells; at 64 µg/mL
Candida albicans [25] = assay: Antifungal activity against Candida albicans 25#; type: functional
[26] = target: T1, Lanosterol 14-alpha demethylase (Candida albicans (strain SC5314 / ATCC MYA-2876) (Yeast), UniProt P10613); assay: Inhibition of CYP51 in Candida albicans SC5314 assessed as lanosterol level at 0.0625 ug/ml measured after 12 hrs by GC-MS analysis (reference value: 2.18%); set-up: scale not given: the % may be the effect or the level left; conditions: dose 0.0625 µg/ml
T1 sequence (P10613 whole entry): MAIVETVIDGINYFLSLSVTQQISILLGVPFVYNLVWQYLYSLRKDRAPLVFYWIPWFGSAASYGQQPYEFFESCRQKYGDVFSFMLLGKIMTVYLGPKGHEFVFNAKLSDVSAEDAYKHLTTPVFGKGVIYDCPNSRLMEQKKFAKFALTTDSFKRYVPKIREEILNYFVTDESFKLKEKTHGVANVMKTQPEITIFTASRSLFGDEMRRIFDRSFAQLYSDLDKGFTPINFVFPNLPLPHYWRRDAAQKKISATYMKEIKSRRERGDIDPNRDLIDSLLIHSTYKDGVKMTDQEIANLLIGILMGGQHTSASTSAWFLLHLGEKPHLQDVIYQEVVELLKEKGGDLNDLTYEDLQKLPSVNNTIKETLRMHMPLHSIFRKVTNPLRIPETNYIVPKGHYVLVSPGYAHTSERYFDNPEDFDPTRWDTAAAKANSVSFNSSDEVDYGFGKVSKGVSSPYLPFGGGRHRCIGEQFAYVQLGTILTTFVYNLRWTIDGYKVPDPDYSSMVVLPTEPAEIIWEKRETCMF

Nannizzia gypsea = assay: Antifungal activity against Microsporum gypseum; type: functional
Nakaseomyces glabratus [27] = assay: Antifungal activity against Candida glabrata 537; type: functional
[28] = Tmax in Sprague-Dawley rat at 5 mg/kg, po by LC-MS analysis; type: ADME, organism-based; conditions: in vivo
Trichophyton rubrum = assay: Antifungal activity against Trichophyton rubrum cmccftla; type: functional
[29] = Oral bioavailability in Sprague-Dawley rat at 5 mg/kg by LC-MS analysis; type: ADME, organism-based; conditions: in vivo
[30] = AUC(0 to infinity) in Sprague-Dawley rat at 5 mg/kg, po by LC-MS analysis; type: ADME, organism-based; set-up: time infinity, dose 5 mg/kg, route po; conditions: in vivo
[31] = Half life in Sprague-Dawley rat at 2 mg/kg, iv by LC-MS analysis; type: ADME, organism-based; conditions: in vivo
[32] = target: T1, Lanosterol 14-alpha demethylase; assay: Inhibition of CYP51 in Candida albicans SC5314 assessed as eburicol level at 0.0625 ug/ml measured after 12 hrs by GC-MS analysis (reference value: 0.00%); set-up: scale not given: the % may be the effect or the level left; conditions: dose 0.0625 µg/ml
Candida albicans [33] = assay: Antifungal activity against Candida albicans Y0109; type: functional
Cryptococcus neoformans [34] = assay: Antifungal activity against Cryptococcus neoformans 32605; type: functional
[35] = target: T1, Lanosterol 14-alpha demethylase; assay: Inhibition of CYP51 in Candida albicans SC5314 assessed as sterol level at 0.0625 ug/ml measured after 12 hrs by GC-MS analysis (reference value: 25.23%); set-up: scale not given: the % may be the effect or the level left; conditions: dose 0.0625 µg/ml
[36] = target: T1, Lanosterol 14-alpha demethylase; assay: Inhibition of CYP51 in Candida albicans SC5314 assessed as ergosterol level at 0.0625 ug/ml measured after 12 hrs by GC-MS analysis (reference value: 72.58%); set-up: scale not given: the % may be the effect or the level left; conditions: dose 0.0625 µg/ml
[37] = Cmax in Sprague-Dawley rat at 5 mg/kg, po by LC-MS analysis; type: ADME, organism-based; set-up: dose 5 mg/kg, route po; conditions: in vivo
Candida parapsilosis [38] = assay: Antifungal activity against Candida parapsilosis 22019; type: functional; conditions: Lodderomyces parapsilosis
[39] = Induction of hemolysis in rabbit RBC at 64 ug/ml incubated for 1 hr; type: toxicity, cell-based, Oryctolagus cuniculus, Erythrocyte; conditions: red blood cells, at 64 µg/mL, read-out: Activity
Aspergillus fumigatus [40] = assay: Antifungal activity against Aspergillus fumigatus 7544 infected in ICR mouse assessed as survival rate at 20 mg/kg, po qd infected with fungus for 2 hrs prior to compound addition for 7 days and measured for 20 days; type: functional; conditions: time 20 day
[41] = Half life in Sprague-Dawley rat at 5 mg/kg, po by LC-MS analysis; type: ADME, organism-based; conditions: in vivo
[42] = AUC(0 to infinity) in Sprague-Dawley rat at 2 mg/kg, iv by LC-MS analysis; type: ADME, organism-based; set-up: time infinity, dose 2 mg/kg, route iv; conditions: in vivo
Aspergillus fumigatus [43] = assay: Antifungal activity against Aspergillus fumigatus 7544 infected in ICR mouse assessed as survival rate at 60 mg/kg, po qd infected with fungus for 2 hrs prior to compound addition for 7 days and measured for 20 days; type: functional; conditions: time 20 day

`CC[C@@H]([C@H](C)O)n1ncn(-c2ccc(N3CCN(c4ccc(OC[C@@H]5CO[C@@](Cn6cncn6)(c6ccc(F)cc6F)C5)cc4)CC3)cc2)c1=O` [POSACONAZOLE] showed an MIC (Candida albicans [1]) of 0.5 µg/mL (≈ 0.713 µM), an MIC (Candida parapsilosis [2]) of 0.5 µg/mL (≈ 0.713 µM) and an MIC (Candida parapsilosis [3]) of 0.5 µg/mL (≈ 0.713 µM). The MIC (Nakaseomyces glabratus [4]) was 2 µg/mL (≈ 2.85 µM), the MIC (Pichia kudriavzevii [5]) was 2 µg/mL (≈ 2.85 µM) and the MIC (Candida albicans [6]) was over 64 µg/mL. It also gave an MIC (Cryptococcus neoformans [7]) of 0.5 µg/mL (≈ 0.713 µM), an MIC (Pichia kudriavzevii [8]) of 2 µg/mL (≈ 2.85 µM) and an MIC (Candida albicans [9]) of over 64 µg/mL. For the same compound, the MIC (Candida tropicalis [10]) was over 16 µg/mL, the MIC (Candida albicans [11]) was over 16 µg/mL and the MIC (Aspergillus fumigatus [12]) was 0.5 µg/mL (≈ 0.713 µM). The MIC (Candida tropicalis [13]) was over 16 µg/mL, the MIC (Candida albicans [14]) was 0.125 µg/mL (≈ 0.178 µM) and the MIC (Candida albicans [15]) was over 64 µg/mL. It also gave a viability at 24 h, 64 ug/ml [16] of 115%, an MIC (Pichia kudriavzevii [17]) of 2 µg/mL (≈ 2.85 µM) and an MIC (Candida albicans [18]) of 0.5 µg/mL (≈ 0.713 µM). For the same compound, the MIC ([Candida] auris [19]) was at most 0.125 µg/mL, the MIC ([Candida] auris [20]) was at most 0.125 µg/mL and the MIC ([Candida] auris [21]) was at most 0.125 µg/mL. It also gave an MIC ([Candida] auris [22]) of at most 0.125 µg/mL, an MIC (Candida parapsilosis [23]) of 1 µg/mL (≈ 1.43 µM) and an MIC (Pichia kudriavzevii [24]) of 2 µg/mL (≈ 2.85 µM). It also gave a viability at 24 h, 64 ug/ml (in vitro) of 68.3% and an MIC (Candida albicans [25]) of over 64 µg/mL.

Work on `CCC(C)n1ncn(-c2ccc(N3CCN(c4ccc(OCC5COC(Cn6cncn6)(c6ccc(Cl)cc6Cl)O5)cc4)CC3)cc2)c1=O` (configuration not stated) [ITRACONAZOLE] yielded an MIC (Candida albicans [1]) of 0.5 µg/mL (≈ 0.709 µM), an MIC (Candida parapsilosis [2]) of 0.5 µg/mL (≈ 0.709 µM) and an MIC (Candida parapsilosis [3]) of 1 µg/mL (≈ 1.42 µM). It also gave an MIC (Nakaseomyces glabratus [4]) of 2 µg/mL (≈ 2.83 µM), an MIC (Pichia kudriavzevii [5]) of 1 µg/mL (≈ 1.42 µM) and an MIC (Candida albicans [6]) of over 64 µg/mL. It also gave an MIC (Pichia kudriavzevii [8]) of 1 µg/mL (≈ 1.42 µM), an MIC (Candida albicans [9]) of over 64 µg/mL and an MIC (Candida tropicalis [10]) of over 16 µg/mL. It also gave an MIC (Candida albicans [11]) of over 16 µg/mL, an MIC (Candida tropicalis [13]) of over 16 µg/mL and an MIC (Candida albicans [15]) of over 64 µg/mL. For the same compound, the MIC (Pichia kudriavzevii [17]) was 2 µg/mL (≈ 2.83 µM), the MIC (Candida albicans [18]) was 0.5 µg/mL (≈ 0.709 µM) and the MIC ([Candida] auris [19]) was 4 µg/mL (≈ 5.67 µM). It also gave an MIC ([Candida] auris [20]) of 1 µg/mL (≈ 1.42 µM), an MIC ([Candida] auris [21]) of 4 µg/mL (≈ 5.67 µM) and an MIC ([Candida] auris [22]) of 4 µg/mL (≈ 5.67 µM). The MIC (Candida parapsilosis [23]) was 4 µg/mL (≈ 5.67 µM), the MIC (Pichia kudriavzevii [24]) was 2 µg/mL (≈ 2.83 µM) and the MIC (Candida albicans [25]) was over 64 µg/mL.

In the case of `C[C@@H](c1ncncc1F)[C@](O)(Cn1cncn1)c1ccc(F)cc1F` [VORICONAZOLE], the Activity [26] is reported as 5.38%, the MIC (Candida albicans [1]) is reported as at most 0.0313 µg/mL and the MIC (Nannizzia gypsea) is reported as 0.25 µg/mL (≈ 0.716 µM). For the same compound, the MIC (Candida parapsilosis [2]) was at most 0.0313 µg/mL, the MIC (Nakaseomyces glabratus [27]) was 0.125 µg/mL (≈ 0.358 µM) and the MIC (Candida parapsilosis [3]) was at most 0.0313 µg/mL. It also gave a Tmax [28] of 53.4 min, an MIC (Trichophyton rubrum) of 0.0625 µg/mL (≈ 0.179 µM) and a bioavailability [29] of 26%. For the same compound, the MIC (Nakaseomyces glabratus [4]) was 0.125 µg/mL (≈ 0.358 µM), the MIC (Pichia kudriavzevii [5]) was 0.0625 µg/mL (≈ 0.179 µM) and the MIC (Candida albicans [6]) was over 64 µg/mL. For the same compound, the MIC (Cryptococcus neoformans [7]) was 0.0313 µg/mL (≈ 0.0896 µM), the MIC (Pichia kudriavzevii [8]) was 0.0625 µg/mL (≈ 0.179 µM) and the AUC(0-inf) [30] was 2530 ng·h/mL. It also gave an MIC (Candida albicans [9]) of over 64 µg/mL, a half-life [31] of 234 min and an Activity [32] of 87.15%. The MIC (Candida tropicalis [10]) was 8 µg/mL (≈ 22.9 µM), the MIC (Candida albicans [33]) was 0.0156 µg/mL (≈ 0.0447 µM) and the MIC (Candida albicans [11]) was over 16 µg/mL. For the same compound, the MIC (Cryptococcus neoformans [34]) was 0.0156 µg/mL (≈ 0.0447 µM), the MIC (Aspergillus fumigatus [12]) was 0.25 µg/mL (≈ 0.716 µM) and the MIC (Candida tropicalis [13]) was over 16 µg/mL. It also gave an MIC (Candida albicans [14]) of 0.0313 µg/mL (≈ 0.0896 µM), an Activity [35] of 5.84% and an Activity [36] of 1.63%. For the same compound, the MIC (Candida albicans [15]) was over 64 µg/mL, the Cmax [37] was 877 ng/mL and the viability at 24 h, 64 ug/ml [16] was 93.4%. It also gave an MIC (Pichia kudriavzevii [17]) of 0.125 µg/mL (≈ 0.358 µM), an MIC (Candida parapsilosis [38]) of 0.0313 µg/mL (≈ 0.0896 µM) and an MIC (Candida albicans [18]) of at most 0.0313 µg/mL. For the same compound, the hemolysis at 1 h, 64 ug/ml [39] was 1.07%, the MIC ([Candida] auris [19]) was 1 µg/mL (≈ 2.86 µM) and the MIC ([Candida] auris [20]) was 2 µg/mL (≈ 5.73 µM). The MIC ([Candida] auris [21]) was 2 µg/mL (≈ 5.73 µM), the Activity (Aspergillus fumigatus [40]) was 60% and the MIC (Candida parapsilosis [23]) was 0.0313 µg/mL (≈ 0.0896 µM). For the same compound, the half-life [41] was 40.2 min, the AUC(0-inf) [42] was 7200 ng·h/mL and the Activity (Aspergillus fumigatus [43]) was 100%. For the same compound, the MIC (Pichia kudriavzevii [24]) was 0.125 µg/mL (≈ 0.358 µM), the viability at 24 h, 64 ug/ml (in vitro) was 103% and the MIC (Candida albicans [25]) was over 64 µg/mL.
